Experimental data as given in US20100137260A1, “COMPOUND FOR INHIBITING TRPV3 FUNCTION AND USE THEREOF” (Korea University Industry and Academic Collaboration …, priority 2008, published 2010).

System: HaCat skin cells
Assay: Artificial wound recovery (cell migration and proliferation) in HaCat cells (FIG. 3)
Type: cell-based
Settings: 12 hours; for Migration and proliferation of HaCaT cells in medium containing camphor: medium containing 4 mM camphor, IPP 10 μM, FPP 1 μM, GPP 10 μM
Method: The present inventors drew lines 1 mm deep on the well fully filled with the cells to make artificial wound. The wounded cells were treated with IPP (10 μM), FPP (1 μM) and GPP (10 μM: geranyl pyrophosphate, Biomol, USA) respectively and incubated in a CO2 incubator for 12 hours. The control group was not-treated. The width of recovered wound was measured under microscope and compared with that at the beginning, which was presented as wound recovery rate. All the experiments were performed on DMEM/FBS. Floating cells, which means dead cells, after making wound, were eliminated by using PBS to eliminate variables caused by dead cells. The cells were observed under microscope (×40), and distance was measured by using image analysis program (Meta-flour 7.1 Molecular Devices, USA).

## CC(C)=CCC/C(C)=C/CC/C(C)=C/COP(=O)(O)OP(=O)(O)O [FPP]
FPP alone (1 μM)
  Migration and proliferation of HaCat skin cells, compound alone: confirmed the inhibitory effect
  Migration and proliferation of HaCaT cells in medium containing camphor: inhibitory effect was not observed

## CC(C)=CCC/C(C)=C/COP(=O)(O)OP(=O)(O)O [GPP, geranyl pyrophosphate]
  Migration and proliferation of HaCaT cells in medium containing camphor: inhibitory effect was not observed
